# Test results as given in paper PMC7933434, “Entropy-driven binding of gut bacterial β-glucuronidase inhibitors ameliorates irinotecan-induced toxicity” (Communications Biology, 2021).
# Where “and” joins values, the source holds several entries; their conditions need not be identical. Equal values may be shown once. Read-outs that look alike come from different tables or passages of the source.
# Experiments:
# [1] = molecular target: EcGUS (Escherichia coli GUS) (Escherichia coli, UniProt P05804); assay: biochemical
# Chain of EcGUS (Escherichia coli GUS) (P05804 whole entry): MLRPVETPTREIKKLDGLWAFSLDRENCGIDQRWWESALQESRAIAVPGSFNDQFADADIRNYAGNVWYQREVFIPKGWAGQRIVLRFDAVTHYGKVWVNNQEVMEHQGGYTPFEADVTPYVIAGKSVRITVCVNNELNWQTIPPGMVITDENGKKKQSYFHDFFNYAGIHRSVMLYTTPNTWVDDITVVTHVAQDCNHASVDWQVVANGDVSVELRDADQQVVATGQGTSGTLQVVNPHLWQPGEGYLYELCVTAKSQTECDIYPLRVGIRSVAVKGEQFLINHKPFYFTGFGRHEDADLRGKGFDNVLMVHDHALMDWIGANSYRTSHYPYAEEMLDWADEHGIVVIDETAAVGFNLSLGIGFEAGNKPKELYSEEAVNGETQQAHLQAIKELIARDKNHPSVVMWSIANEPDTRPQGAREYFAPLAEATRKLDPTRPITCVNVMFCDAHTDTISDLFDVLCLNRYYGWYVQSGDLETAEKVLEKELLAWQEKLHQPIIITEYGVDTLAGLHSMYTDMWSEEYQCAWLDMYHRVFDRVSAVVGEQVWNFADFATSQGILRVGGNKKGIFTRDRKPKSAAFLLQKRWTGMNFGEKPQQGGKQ
# [2] = molecular target: LgGUS (Lactobacillus gasseri GUS) (Lactobacillus gasseri, UniProt Q9AHJ8); assay: GUS inhibition assay, hydrolysis of 4-methylumbelliferyl-β-glucuronide, LgGUS; assay type: biochemical; design: GUS activity (hydrolysis rate of MUG) / 1/v: unit not given here; details: for Ki: LgGUS
# Chain of LgGUS (Lactobacillus gasseri GUS) (Q9AHJ8 1-598): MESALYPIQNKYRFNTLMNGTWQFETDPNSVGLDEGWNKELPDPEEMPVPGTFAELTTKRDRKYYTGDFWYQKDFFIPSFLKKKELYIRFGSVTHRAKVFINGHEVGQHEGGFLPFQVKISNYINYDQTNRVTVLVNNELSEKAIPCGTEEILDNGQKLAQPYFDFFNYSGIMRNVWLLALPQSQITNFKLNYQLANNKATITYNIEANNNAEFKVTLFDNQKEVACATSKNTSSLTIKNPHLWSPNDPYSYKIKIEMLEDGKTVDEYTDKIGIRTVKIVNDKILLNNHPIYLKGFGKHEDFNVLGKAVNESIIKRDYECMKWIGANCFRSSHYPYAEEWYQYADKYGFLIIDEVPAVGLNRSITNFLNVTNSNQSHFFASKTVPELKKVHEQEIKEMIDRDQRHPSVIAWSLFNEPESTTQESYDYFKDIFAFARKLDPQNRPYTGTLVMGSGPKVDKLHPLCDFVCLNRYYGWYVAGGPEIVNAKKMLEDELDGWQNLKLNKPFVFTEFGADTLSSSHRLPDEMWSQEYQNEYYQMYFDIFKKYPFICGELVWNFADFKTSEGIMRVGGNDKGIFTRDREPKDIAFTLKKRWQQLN
# [3] = molecular target: BdGUS (Bifidobacterium dentium GUS) (Bifidobacterium dentium, UniProt D2Q7B1); assay: biochemical; design: GUS activity (hydrolysis rate of MUG) / 1/v: unit not given here
# Chain of BdGUS (Bifidobacterium dentium GUS) (D2Q7B1 1-668): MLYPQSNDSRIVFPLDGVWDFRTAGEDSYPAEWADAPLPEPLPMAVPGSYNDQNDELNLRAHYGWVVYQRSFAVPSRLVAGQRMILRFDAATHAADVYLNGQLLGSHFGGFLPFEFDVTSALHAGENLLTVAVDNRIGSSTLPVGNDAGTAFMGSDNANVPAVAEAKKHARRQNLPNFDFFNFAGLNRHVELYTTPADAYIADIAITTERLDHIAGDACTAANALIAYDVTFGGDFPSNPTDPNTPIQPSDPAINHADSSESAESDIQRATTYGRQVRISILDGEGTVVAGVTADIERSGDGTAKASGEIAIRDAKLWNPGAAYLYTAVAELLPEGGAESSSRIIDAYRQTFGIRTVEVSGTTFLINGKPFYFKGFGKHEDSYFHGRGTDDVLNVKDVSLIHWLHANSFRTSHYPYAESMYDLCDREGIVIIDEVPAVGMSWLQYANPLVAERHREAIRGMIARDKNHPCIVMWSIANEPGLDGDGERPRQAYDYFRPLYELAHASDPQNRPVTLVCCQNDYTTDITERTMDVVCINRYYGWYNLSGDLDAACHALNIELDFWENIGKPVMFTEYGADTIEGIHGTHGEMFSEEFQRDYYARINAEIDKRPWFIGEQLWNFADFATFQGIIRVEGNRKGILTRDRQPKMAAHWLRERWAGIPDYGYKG
# EcGUS = EcGUS (Escherichia coli, UniProt P05804); assay: Isothermal titration calorimetry, EcGUS; assay type: binding; details: EcGUS
# Chain of EcGUS (P05804 whole entry): as the sequence (P05804 whole entry) above
# [4] = molecular target: T1, GUS activity in live E. coli cells (Escherichia coli, UniProt P05804); assay: GUS activity in live E. coli cells; assay type: cell-based; details: E. coli cells (OD600 = 1.89) treated for 30 min, then GUS activity measured
# T1 construct: endogenous in cells
# T1 sequence (P05804 whole entry): as above
# Protocol: To examine if inhibitors 2–4 could inhibit GUS activity in vivo, E. coli cells (OD600 = 1.89) were treated with each of 2–4 for 30 min, after which GUS activity was measured. […]; 3, 18.6 nM; and 4, 3.69 nM (Supplementary Fig. 9a). […]. […] Additionally, to evaluate cell viability, E. coli cultures were treated with ampicillin (positive control), DMSO, or inhibitors 2–4 (100 μM) for 6 h.
# Supplementary Figure 9 Inhibitors 2–4 sho w in hi biti on ag ai n st G US acti vity in l i ve E. co li cell s. (a) GUS activity was measured in live E. coli. Af t e r E. coli were incubated with DMSO or an inhibitor ( 2–4), GUS activity was measured using 4-methylumbelliferyl-β-glucuronide as the substrate. The release of fluorescent 4-methylumbelliferone was detected at 445 nm (excitation, 345 nm). Compared with the negative c ont rol (DMSO ), […]
# […]. (b) Colony formation assay. None of the inhibitors affected bacterial growth. As a negative control, E. coli cells were incubated with ampicillin (100 μg/mL). Results are expressed as the mean of triplicate samples ± SEM.
# (1 picture or pasted object on this page, not shown here)
# [5] = [Inhibitor 4] = 0.1 μM, [MUG] 0.0375 mM
# [6] = [Inhibitor 4] = 0.1 μM, [MUG] 0.05 mM
# [7] = [Inhibitor 4] = 0.1 μM, [MUG] 0.075 mM
# [8] = [Inhibitor 4] = 0.1 μM, [MUG] 0.15 mM
# [9] = [Inhibitor 4] = 0.2 μM, [MUG] 0.0375 mM
# [10] = [Inhibitor 4] = 0.2 μM, [MUG] 0.05 mM
# [11] = [Inhibitor 4] = 0.2 μM, [MUG] 0.075 mM
# [12] = [Inhibitor 4] = 0.2 μM, [MUG] 0.15 mM
# [13] = [Inhibitor 4] = 0.4 μM, [MUG] 0.0375 mM
# [14] = [Inhibitor 4] = 0.4 μM, [MUG] 0.05 mM
# [15] = [Inhibitor 4] = 0.4 μM, [MUG] 0.075 mM
# [16] = [Inhibitor 4] = 0.4 μM, [MUG] 0.15 mM
# [17] = [Inhibitor 4] = 0.6 μM, [MUG] 0.0375 mM
# [18] = [Inhibitor 4] = 0.6 μM, [MUG] 0.05 mM
# [19] = [Inhibitor 4] = 0.6 μM, [MUG] 0.075 mM
# [20] = [Inhibitor 4] = 0.6 μM, [MUG] 0.15 mM
# [21] = [Inhibitor 4] = 0.05 μM, [MUG] 0.08 mM
# [22] = [Inhibitor 4] = 0.05 μM, [MUG] 0.125 mM
# [23] = [Inhibitor 4] = 0.05 μM, [MUG] 0.25 mM
# [24] = [Inhibitor 4] = 0.05 μM, [MUG] 0.5 mM
# [25] = [Inhibitor 4] = 0.15 μM, [MUG] 0.08 mM
# [26] = [Inhibitor 4] = 0.15 μM, [MUG] 0.125 mM
# [27] = [Inhibitor 4] = 0.15 μM, [MUG] 0.25 mM
# [28] = [Inhibitor 4] = 0.15 μM, [MUG] 0.5 mM
# [29] = [Inhibitor 4] = 0.3 μM, [MUG] 0.08 mM
# [30] = [Inhibitor 4] = 0.3 μM, [MUG] 0.125 mM
# [31] = [Inhibitor 4] = 0.3 μM, [MUG] 0.25 mM
# [32] = [Inhibitor 4] = 0.3 μM, [MUG] 0.5 mM
# [33] = [Inhibitor 4] = 0.6 μM, [MUG] 0.08 mM
# [34] = [Inhibitor 4] = 0.6 μM, [MUG] 0.125 mM
# [35] = [Inhibitor 4] = 0.6 μM, [MUG] 0.25 mM
# [36] = [Inhibitor 4] = 0.6 μM, [MUG] 0.5 mM
# [37] = phosphate buffer (250 mM NaCl, 20 mM KH2PO4, 100 mM Na2HPO4, pH 8.0), 298 K
compound,measurement,setting,value
"CCCCCCCCC[C@@H]1NC[C@@H](O)[C@H](O)[C@H]1C(=O)O [Inhibitor 4, C6-nonyl UIFG]",Ki,[1],4.5 nM
same,Ki,"[1]; 50 mM HEPES pH 7.5, 37 °C",4.5 ± 0.7 nM
same,Ki,[2],270 nM
same,Ki,"[2]; 50 mM sodium acetate pH 4.5, 37 °C",270 ± 74 nM
same,1/v,[2]; [5],0.07099 and 0.06547 and 0.07752
same,GUS activity (hydrolysis rate of MUG),[2]; [5],17345 and 18805 and 15888
same,1/v,[2]; [6],0.08248 and 0.08036 and 0.08633
same,GUS activity (hydrolysis rate of MUG),[2]; [6],14936 and 15328 and 14270
same,1/v,[2]; [7],0.1044 and 0.09961 and 0.1132
same,GUS activity (hydrolysis rate of MUG),[2]; [7],11804 and 12374 and 10895
same,1/v,[2]; [8],0.1278 and 0.1207 and 0.1294
same,GUS activity (hydrolysis rate of MUG),[2]; [8],9649 and 10216 and 9535
same,1/v,[2]; [9],0.05896 and 0.0562 and 0.06114
same,GUS activity (hydrolysis rate of MUG),[2]; [9],20877 and 21902 and 20134
same,1/v,[2]; [10],0.07315 and 0.0639 and 0.07306
same,GUS activity (hydrolysis rate of MUG),[2]; [10],16834 and 19266 and 16856
same,1/v,[2]; [11],0.08853 and 0.08384 and 0.0916
same,GUS activity (hydrolysis rate of MUG),[2]; [11],13918 and 14693 and 13452
same,1/v,[2]; [12],0.113 and 0.1097 and 0.1193
same,GUS activity (hydrolysis rate of MUG),[2]; [12],10909 and 11240 and 10335
same,1/v,[2]; [13],0.04482 and 0.03964 and 0.04854
same,GUS activity (hydrolysis rate of MUG),[2]; [13],27452 and 31030 and 25348
same,1/v,[2]; [14],0.06247 and 0.0466 and 0.0623
same,GUS activity (hydrolysis rate of MUG),[2]; [14],19707 and 26401 and 19760
same,1/v,[2]; [15],0.07433 and 0.06177 and 0.07489
same,GUS activity (hydrolysis rate of MUG),[2]; [15],16569 and 19929 and 16445
same,1/v,[2]; [16],0.09796 and 0.08796 and 0.1041
same,GUS activity (hydrolysis rate of MUG),[2]; [16],12581 and 14006 and 11837
same,1/v,[2]; [17],0.03481 and 0.03381 and 0.03972
same,GUS activity (hydrolysis rate of MUG),[2]; [17],35328 and 36376 and 30969
same,1/v,[2]; [18],0.04379 and 0.03975 and 0.04826
same,GUS activity (hydrolysis rate of MUG),[2]; [18],28094 and 30946 and 25494
same,1/v,[2]; [19],0.05918 and 0.05295 and 0.06497
same,GUS activity (hydrolysis rate of MUG),[2]; [19],20799 and 23242 and 18949
same,1/v,[2]; [20],0.08688 and 0.08016 and 0.09205
same,GUS activity (hydrolysis rate of MUG),[2]; [20],14180 and 15366 and 13387
same,Ki,[3]; BdGUS,440 nM
same,1/v,[3]; [21],0.1206 and 0.1178 and 0.1199
same,GUS activity (hydrolysis rate of MUG),[3]; [21],1.851 and 1.896 and 1.862
same,1/v,[3]; [22],0.09548 and 0.09298 and 0.09392
same,GUS activity (hydrolysis rate of MUG),[3]; [22],2.339 and 2.4016 and 2.377
same,1/v,[3]; [23],0.06502 and 0.06335 and 0.06665
same,GUS activity (hydrolysis rate of MUG),[3]; [23],3.434 and 3.525 and 3.35
same,1/v,[3]; [24],0.04786 and 0.04662 and 0.0491
same,GUS activity (hydrolysis rate of MUG),[3]; [24],4.665 and 4.79 and 4.548
same,1/v,[3]; [25],0.1451 and 0.1465 and 0.1466
same,GUS activity (hydrolysis rate of MUG),[3]; [25],1.539 and 1.524 and 1.523
same,1/v,[3]; [26],0.1144 and 0.1135 and 0.113
same,GUS activity (hydrolysis rate of MUG),[3]; [26],1.951 and 1.968 and 1.976
same,1/v,[3]; [27],0.07405 and 0.07448 and 0.0755
same,GUS activity (hydrolysis rate of MUG),[3]; [27],3.015 and 2.998 and 2.957
same,1/v,[3]; [28],0.05196 and 0.05207 and 0.05497
same,GUS activity (hydrolysis rate of MUG),[3]; [28],4.298 and 4.288 and 4.062
same,1/v,[3]; [29],0.2039 and 0.1961 and 0.2029
same,GUS activity (hydrolysis rate of MUG),[3]; [29],1.095 and 1.138 and 1.1007
same,1/v,[3]; [30],0.1529 and 0.1514 and 0.1472
same,GUS activity (hydrolysis rate of MUG),[3]; [30],1.4607 and 1.475 and 1.517
same,1/v,[3]; [31],0.09524 and 0.09338 and 0.09505
same,GUS activity (hydrolysis rate of MUG),[3]; [31],2.344 and 2.391 and 2.349
same,1/v,[3]; [32],0.06409 and 0.06318 and 0.06381
same,GUS activity (hydrolysis rate of MUG),[3]; [32],3.484 and 3.534 and 3.499
same,1/v,[3]; [33],0.286 and 0.2822 and 0.2849
same,GUS activity (hydrolysis rate of MUG),[3]; [33],0.7809 and 0.7911 and 0.7837
same,1/v,[3]; [34],0.2142 and 0.2187 and 0.2123
same,GUS activity (hydrolysis rate of MUG),[3]; [34],1.043 and 1.021 and 1.052
same,1/v,[3]; [35],0.1255 and 0.1264 and 0.1244
same,GUS activity (hydrolysis rate of MUG),[3]; [35],1.779 and 1.767 and 1.7944
same,1/v,[3]; [36],0.08292 and 0.0812 and 0.08265
same,GUS activity (hydrolysis rate of MUG),[3]; [36],2.693 and 2.75 and 2.702
same,ΔH,"EcGUS; Tris buffer (250 mM NaCl, 20 mM Tris, pH 8.0), 298 K",close to zero
same,"ΔΔH relative to 2 (ΔΔH2–3, ΔΔH2–4)",EcGUS; phosphate buffer,+0.99 kcal mol^−1
same,"–TΔΔS relative to 2 (–TΔΔS2–3, –TΔΔS2–4)",EcGUS; phosphate buffer,-1.34 kcal/mol
same,Kd,EcGUS; [37],160 ± 40 nM
same,ΔG,EcGUS; [37],–9.30 ± 0.13 kcal/mol
same,ΔH,EcGUS; [37],–3.00 ± 0.02 kcal/mol
same,—TΔS,EcGUS; [37],–6.31 ± 0.15 kcal/mol
same,IC50,[4],3.69 nM
